The values that follow are results of earlier work, collected in patent US20070049498A1, “Agricultural compositions which enhance performance of herbicides” (priority 2005, published 2007).

For this data set the following is noted: glyphosate in acid form.

In the case of `O=C(O)CNCP(=O)(O)O` [glyphosate, N-phosphonomethylglycine], the water solubility entry was “about 1.2%”.
